In this assay the test system is cholesterol biosynthesis from acetate (liver microsome and sup fraction). Description: Test A: Inhibition of cholesterol biosynthesis from acetate in vitro. It is filed as biochemical, male Wistar rat. As to conditions: for Relative activities by Test A: relative to CS-514 being evaluated to be 1. As for the experimental part:
Test A: Inhibition of cholesterol biosynthesis from acetate in vitro
Enzyme solution was prepared from liver of male Wistar rat billialy cannulated and discharged bile for over 24 hours. Liver was cut out at mid-dark and microsome and supernatant fraction which was precipitable with 40-80% of saturation of ammonium sulfate (sup fraction) were prepared from liver homogenate according to the modified method of Knauss et. al.; Kuroda, M., et. al., Biochim. Biophys. Acta, 489, 119 (1977). For assay of cholesterol biosynthesis, microsome (0.1 mg protein) and sup fraction (1.0 mg protein) were incubated for 2 hours at 37° C. in 200 μl of the reaction mixture containing ATP; 1 mM, Glutathione; 6 mM, Glucose-1-phosphate; 10 mM, NAD; 0.25 mM, NADP; 0.25 mM, CoA; 0.04 mM and 0.2 mM [2-^14 C]sodium acetate (0.2 μCi) with 4 μl of test compound solution dissolved in water or dimethyl sulfoxide. To stop reaction and saponify, 1 ml of 15% EtOH-KOH was added to the reactions and heated at 75° C. for 1 hour. […] Inhibitory activity of compounds was indicated with IC50.

Where a name gives a salt, the structure may show the parent alone.

Consider `CC(C)c1nc2ccccc2c(-c2ccc(F)cc2)c1/C=C/C(O)CC(O)CC(=O)O` (stereo not drawn) [I-51, Sodium salt of (E)-3,5-dihydroxy-7-[4'-(4"-fluorophenyl)-2'-(1"-methylethyl)-quinolin-3 '-yl]-hept-6-enoic acid], for which, for the setting “Test A, rat liver microsome + sup fraction, [2-14C]sodium acetate, 2 hours at 37° C., read-out: I50 (inhibitory activities by Test A)”, the IC50 was determined as 10 nM.

With `CCOC(=O)CC(O)CC(O)/C=C/c1c(CC)nc2ccccc2c1-c1ccc(F)cc1` (stereo not drawn) [I-117], the “Relative activities by Test A” value is reported as 0.37. Still for that read-out and setting: in the case of `CC(C)c1nc2c(Cl)cc(Cl)cc2c(-c2ccc(F)cc2)c1/C=C/C(O)CC(O)CC(=O)O` (stereo not drawn) [I-522] it was 0.76.

(Values after patent US5856336A, “Quinoline type mevalonolactones” (Nissan Chemical Industries Ltd., priority 1987, dated 1999).)
